Source: US20260198495A1, “BINARY INSECTICIDE COMPOSITION AND USE THEREOF” (SHENYANG SINOCHEM AGROCHEMICALS R & D CO., LTD., priority 2022, published 2026)

Legend:
Type in all cases: in vivo
[1] = test system: 3rd-instar larvae of Pyrausta nubilalis Hubern; test: Joint toxicity of I-72 + metaflumizone, artificial diet-pesticide film, Example 2, Table 2; conditions: 72 h, A = compound I-72, B = metaflumizone
Procedure: (§1) Test subject: 3rd-instar larvae of Pyrausta nubilalis Hubern, a sensitive strain reared indoors.
(§2) Experimental method: the artificial diet-pesticide film method was adopted. A standard clean 24-well culture plate was selected. 1 ml of artificial diet was added to each well. After the diet cooled and solidified, a quantitative amount of a pesticide solution was added to the culture plate using a continuous sampler, and then it was air-dried naturally in the shade. The standard test insects were introduced, with 1 insect in each well, a total of 48 insects. The treated test insects were placed in an observation room under certain conditions. The reaction of the test insects was regularly observed, and the number of dead and live insects was investigated 72 h later.
(§3) The test conditions, the preparation method of the pesticide solution, and the evaluation method (Sun Y-P) for the joint action type of the mixture were the same as those in Example 1.

[2] = test system: 3rd-instar larvae of Plutella xylostella; test: Joint toxicity of I-72 + metaflumizone, airbrush spraying, Example 4, Table 4; conditions: airbrush spraying of cabbage leaf disks, 72 h, A = compound I-72, B = metaflumizone
Procedure: Test target: 3rd-instar larvae of Plutella xylostella, a sensitive strain reared indoors.
(§4) Test conditions: temperature: 25-27° C., humidity: RH 60%, and illumination: L:D=14:10
Experimental method: the airbrush spraying method was adopted. The cabbage cultivated in the greenhouse was taken and made into leaf disks with a diameter of 3 cm. After uniform spraying treatment with an airbrush manual sprayer, the leaf disks were placed in a 9-cm Petri dish lined with filter paper. After natural air-drying in the shade, the standard test insects were introduced, and the number of dead and live insects was investigated 72 h later.
The preparation of the pesticide solution and the evaluation method (Sun Y-P) for the joint action type of the mixture were the same as those in Example 1.

[3] = test system: 3rd-instar larvae of Spodoptera frugiperda; test: Joint toxicity of I-72 + indoxacarb, corn leaf dipping, Example 3, Table 3; conditions: 72 h, A = compound I-72, B = indoxacarb
Description: (§5) Test subject: 3rd-instar larvae of Spodoptera frugiperda, a sensitive strain reared indoors.
(§6) Experimental method: the dipping method was adopted. The corn leaves cultivated in the greenhouse were taken, cut into leaf segments of 5 cm long, dipped in the prepared pesticide solution for 10 s, and then cut into small pieces of 1.5 cm×1.5 cm after natural air-drying in the shade. These pieces were placed in a 24-well culture plate, and the standard test insects were introduced, with 48 insects for each treatment. The treated test insects were placed in an observation room under certain conditions. The reaction of the test insects was regularly observed, and the number of dead and live insects was investigated 72 h later.
as §3

[4] = test system: 3rd-instar larvae of Spodoptera exigua Hübner; test: Joint toxicity (LC50, CTC) of I-72 + indoxacarb, leaf-disk dipping, Example 1, Table 1; conditions: cabbage leaf-disk dipping, 72 h, A = compound I-72, B = indoxacarb
Procedure: (§7) Test subject: 3rd-instar larvae of Spodoptera exigua Hübner, a sensitive strain reared indoors.
Test conditions: temperature: 24-26° C., humidity: RH 60%, and illumination: L:D=14:10.
(§8) Preparation method: the test pesticides were accurately weighed respectively with an electronic analytical balance. After the two technical materials were respectively added into an appropriate amount of solvent and completely dissolved, the stock solution of the required concentration was prepared with water containing 0.1% Tween 80. The stock solutions of the two active ingredients were mixed in a certain ratio to prepare a mixed solution, which was then diluted respectively into a series of pesticide solutions with a certain concentration gradient according to the experimental design dosage.
Experimental method: the dipping method was adopted. […]
The co-toxicity coefficient (CTC value) of the mixture was calculated according to the following formula:
[formula] • in the formula: ATI-measured toxicity index of the mixture; S-LC50 of the standard pesticide; and M-LC50 of the mixture. […]
[formula] • in the formula: CTC-co-toxicity coefficient; ATI-measured toxicity index of the mixture; and TTI-theoretical toxicity index of the mixture. • CTC-co-toxicity coefficient • ATI-measured toxicity index of the mixture • TTI-theoretical toxicity index of the mixture

[5] = test system: 3rd-instar larvae of Pyrausta nubilalis Hubern; test: Synergism assay (Bliss) of I-72 + abamectin, spinosad, spinetoram, emamectin benzoate, Example 6, Table 6; conditions: 72 h
Procedure: as §1
Test conditions: temperature: 24-26° C., humidity: RH 60%, and illumination: L:D=14:10
as §8, §2
The evaluation method adopted was the Bliss method. This method is applicable to the qualitative screening of insecticidal compositions. According to the concept of independent joint action he proposed, Bliss believes that the theoretical mortality rate P when insecticides are used in combination can be calculated by the following formula: […]
Pm is the mortality rate (%) of the target when the first active ingredient is at a concentration of m; and Pn is the mortality rate (%) of the target when the second active ingredient is at a concentration of n.
If the actual mortality rate of the target after the two active ingredients are mixed at a certain concentration is greater than theoretical mortality rate P, it is determined that the two active ingredients have a synergistic effect when used in combination at the set concentration, and otherwise, they have an antagonistic effect.

[6] = test system: 2nd-instar larvae of Chilo suppressalis (Walker); test: Joint toxicity of I-72 + abamectin, rice stalk spraying, Example 7, Table 7; conditions: resistant 2nd-instar larvae, 72 h, A = compound I-72, B = abamectin
Procedure: Test target: 2nd-instar larvae of Chilo suppressalis (Walker). The insect source was collected from Nanchang, Jiangxi Province, and it is the 11th generation continuously cultured indoors, with a relatively high resistance level to amide pesticides such as chlorantraniliprole.
as §4, §8
Experimental method: the spraying method was adopted. […] The corrected mortality rate was calculated using the Abbott's formula, and the DPS data processing software was used for statistical analysis to calculate the toxicities (LC50 values) of the single test pesticides and the mixtures under the test ratios. […]

[7] = test system: adult Bemisia tabaci (Gennadius); test: Joint toxicity of I-72 + abamectin, seedling spraying, Example 13, Table 13; conditions: adults, kidney bean seedling spraying, 72 h; A = compound I-72, B = abamectin
Description: (§9) Test subject: adult Bemisia tabaci (Gennadius), a sensitive strain reared indoors.
(§10) Experimental method: the spraying method was adopted. The kidney bean seedlings cultivated in the greenhouse were selected and evenly sprayed with the pesticide solution in the order from low dosage to high dosage according to the experimental design. After natural air-drying in the shade, a self-made glass cover was put on, and the test insects were introduced, with 20-30 insects for each treatment and 3 replicates. In addition, a blank control was set up. The number of dead and live insects was investigated 72 hours later. The corrected mortality rate was calculated using the Abbott's formula, and the DPS data processing software was used for statistical analysis to calculate the toxicities (LC50 values) of the single test pesticides and the mixtures under the test ratios.
(§11) The test conditions, the preparation of the pesticide solution and the evaluation method were the same as those in Example 1.
The test subject, the test method, the test conditions, the preparation of the pesticide solution and the evaluation method were the same as those in Example 12.

[8] = test system: adult Bemisia tabaci (Gennadius); test: Joint toxicity of I-72 + emamectin benzoate, seedling spraying, Example 12, Table 12; conditions: adults, kidney bean seedling spraying, 72 h; A = compound I-72, B = emamectin benzoate
Description: as §9, §10, §11

[9] = test system: 3rd-instar larvae of Spodoptera exigua Hübner; test: Joint toxicity of I-72 + emamectin benzoate, leaf-disk dipping, Example 9, Table 9; conditions: cabbage leaf-disk dipping, 72 h, A = compound I-72, B = emamectin benzoate
Description: as §7
Experimental method: the dipping method was adopted. The cabbage leaves cultivated in the greenhouse were taken, the surface wax layer was removed, and leaf disks with a diameter of 3 cm were made with a puncher. The leaf disks were dipped in the prepared pesticide solution for 10 s, and then put into a 9-cm-diameter Petri dish lined with filter paper. After natural air-drying in the shade, the standard test insects were introduced, with 10 insects placed in each dish and 3 replicates performed. The treated test insects were placed in an observation room under certain conditions. The reaction of the test insects was regularly observed, and the number of dead and live insects was investigated 72 h later.
as §11

[10] = test system: 2nd-instar nymphs of Frankliniella occidentalis Pergande; test: Joint toxicity of I-72 + spinetoram, leaf spraying, Example 11, Table 11; conditions: kidney bean leaf spraying, 48 h, A = compound I-72, B = spinetoram
Description: Test subject: 2nd-instar nymphs of Frankliniella occidentalis Pergande, a sensitive strain reared indoors.
Experimental method: the spraying method was adopted. The kidney bean leaves cultivated in the greenhouse were selected, and the petioles were wrapped with moist degreased cotton and sealing film. They were evenly sprayed with the pesticide solution in the order from low dosage to high dosage according to the experimental design, placed in a 6-cm-diameter Petri dish with filter paper. After natural air-drying in the shade, the test insects were introduced, with 20 insects for each treatment and 3 replicates. In addition, a blank control was set up. The number of dead and live insects was investigated 48 hours later. The corrected mortality rate was calculated using the Abbott's formula, and the DPS data processing software was used for statistical analysis to calculate the toxicities (LC50 values) of the single test pesticides and the mixtures under the test ratios.
as §11

[11] = test system: 2nd-instar larvae of Chilo suppressalis (Walker); test: whole plant or invertebrate; conditions: resistant 2nd-instar larvae, rice stalk spraying, 72 h; A = compound I-72, B = spinetoram
Procedure: In addition, a blank control was set up. The number of dead and live insects was investigated 72 hours later.

[12] = test system: 3rd-instar larvae of Spodoptera frugiperda; test: Joint toxicity of I-72 + spinosad, corn leaf dipping, Example 10, Table 10; conditions: 72 h, A = compound I-72, B = spinosad
Description: as §5, §6, §11

N#Cc1ccc(CC(=NNC(=O)Nc2ccc(OC(F)(F)F)cc2)c2cccc(C(F)(F)F)c2)cc1 (mixture of isomers) [metaflumizone, reference compound]
LC50 [1]: 1.0724 µg/mL | LC50 [2]: 12.8933 µg/mL

COC(=O)N(C(=O)N1CO[C@@]2(C(=O)OC)Cc3cc(Cl)ccc3C2=N1)c1ccc(OC(F)(F)F)cc1 [indoxacarb, reference compound]
LC50 [3]: 2.2438 µg/mL | LC50 [4]: 0.8555 µg/mL

abamectin
Mortality rate (%) ([5]; single agent 0.1 mg/L): 10.42% | Mortality rate (%) ([5]; single agent 1 mg/L): 58.33% | Mortality rate (%) ([5]; single agent 2 mg/L): 75.00% | Mortality rate (%) ([5]; single agent 5 mg/L): 85.42% | LC50 [6]: 8.0355 µg/mL | LC50 [7]: 2.2263 µg/mL

emamectin benzoate
Mortality rate (%) ([5]; single agent 0.05 mg/L): 41.67% | Mortality rate (%) ([5]; single agent 0.1 mg/L): 50.00% | Mortality rate (%) ([5]; single agent 0.2 mg/L): 79.17% | Mortality rate (%) ([5]; single agent 0.5 mg/L): 87.50% | LC50 [8]: 1.1995 µg/mL | LC50 [9]: 0.0878 µg/mL

spinetoram
Mortality rate (%) ([5]; single agent 0.1 mg/L): 8.33% | Mortality rate (%) ([5]; single agent 1 mg/L): 56.25% | Mortality rate (%) ([5]; single agent 2 mg/L): 70.83% | Mortality rate (%) ([5]; single agent 5 mg/L): 81.25% | LC50 [10]: 0.7822 µg/mL | LC50 [11]: 9.4220 µg/mL

spinosad
Mortality rate (%) ([5]; single agent 0.1 mg/L): 4.17% | Mortality rate (%) ([5]; single agent 1 mg/L): 52.08% | Mortality rate (%) ([5]; single agent 2 mg/L): 68.75% | Mortality rate (%) ([5]; single agent 5 mg/L): 79.17% | LC50 [12]: 1.1242 µg/mL
